Measurements published in patent US20160271263A1 (Novo Nordisk A/S, priority 2010, published 2016).
Numbered stars: 1 amine (or outer) side, 2 acyl side, 3 side chain; on linkers, the order of the positions; unused ones are H or OH. Square brackets hold non-standard residues; d marks the D form. Side chains are listed from the residue outwards. Peptide text beside a SMILES is read from it. * marks the point of attachment. C18 diacid = O=C(O)CCCCCCCCCCCCCCCCC(=O)*; γGlu = O=C(O)[C@H](CCC(=O)[*:2])N[*:1]; AEEA = NCCOCCOCC(=O)O

Biological target: glucagon receptor (Homo sapiens, UniProt P47871)
Test: cell-based

Sequence of glucagon receptor (P47871 26-477): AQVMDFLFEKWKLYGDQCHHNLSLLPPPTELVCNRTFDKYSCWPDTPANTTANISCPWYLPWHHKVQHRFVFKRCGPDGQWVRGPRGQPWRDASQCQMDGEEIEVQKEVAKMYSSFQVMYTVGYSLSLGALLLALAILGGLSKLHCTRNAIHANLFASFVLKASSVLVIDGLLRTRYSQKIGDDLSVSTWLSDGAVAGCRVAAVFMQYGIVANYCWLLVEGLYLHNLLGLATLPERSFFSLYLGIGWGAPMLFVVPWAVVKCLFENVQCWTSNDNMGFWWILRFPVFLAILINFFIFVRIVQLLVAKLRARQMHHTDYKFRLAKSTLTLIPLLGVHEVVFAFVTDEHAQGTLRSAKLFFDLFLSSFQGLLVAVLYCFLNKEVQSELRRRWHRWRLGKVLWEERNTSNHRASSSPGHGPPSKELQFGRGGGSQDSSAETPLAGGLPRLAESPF

EC50 [nM] | SMILES
0.007 | CC(C)C[C@H](NC(=O)[C@H](Cc1ccc(O)cc1)NC(=O)[C@H](CCCCN)NC(=O)[C@H](CO)NC(=O)[C@H](Cc1ccc(O)cc1)NC(=O)[C@H](CC(=O)O)NC(=O)[C@H](CO)NC(=O)[C@@H](NC(=O)[C@H](Cc1ccccc1)NC(=O)[C@@H](NC(=O)CNC(=O)[C@H](CCC(N)=O)NC(=O)[C@H](CO)NC(=O)[C@@H](N)Cc1c[nH]cn1)[C@@H](C)O)[C@@H](C)O)C(=O)N[C@@H](CC(=O)O)C(=O)N[C@@H](CO)C(=O)N[C@@H](CCCCN)C(=O)N[C@@H](CCCNC(=N)N)C(=O)N[C@@H](C)C(=O)N[C@@H](CCC(N)=O)C(=O)N[C@@H](CCC(=O)O)C(=O)N[C@@H](Cc1ccccc1)C(=O)N[C@H](C(=O)N[C@@H](CCCCNC(=O)COCCOCCNC(=O)COCCOCCNC(=O)CC[C@H](NC(=O)CCCCCCCCCCCCCCCCC(=O)O)C(=O)O)C(=O)N[C@@H](Cc1c[nH]c2ccccc12)C(=O)N[C@@H](CC(C)C)C(=O)N[C@@H](CC(C)C)C(=O)N[C@@H](CO)C(=O)N[C@H](C(N)=O)[C@@H](C)O)C(C)C [Example 40, N^ε24-([2-[2-[2-[[2-[2-[2-[[(4S)-5-hydroxy-4-[(18-hydroxy-18-oxooctadecanoyl)amino]-5-oxopentanoyl]amino]ethoxy]ethoxy]acetyl]amino]ethoxy]ethoxy]acetyl]) [Lys^17, Glu^21,Lys^24,Leu^27,Ser^28]Glucagon peptide amide] (H-HSQGTFTSDYSKYLDSKRAQEFVK([AEEA-AEEA-γGlu-C18 diacid])WLLST-NH2; N-terminus assumed)
0.018 | CC(C)C[C@H](NC(=O)[C@H](Cc1ccc(O)cc1)NC(=O)[C@H](CCCCN)NC(=O)[C@H](CO)NC(=O)[C@H](Cc1ccc(O)cc1)NC(=O)[C@H](CC(=O)O)NC(=O)[C@H](CO)NC(=O)[C@@H](NC(=O)[C@H](Cc1ccccc1)NC(=O)[C@@H](NC(=O)CNC(=O)[C@H](CCC(N)=O)NC(=O)[C@H](CO)NC(=O)[C@@H](N)Cc1c[nH]cn1)[C@@H](C)O)[C@@H](C)O)C(=O)N[C@@H](CC(=O)O)C(=O)N[C@@H](CCCCNC(=O)COCCOCCNC(=O)COCCOCCNC(=O)CC[C@H](NC(=O)CCCCCCCCCCCCCCCCC(=O)O)C(=O)O)C(=O)N[C@@H](CCCCN)C(=O)N[C@@H](CCCNC(=N)N)C(=O)N[C@@H](C)C(=O)N[C@@H](CCC(N)=O)C(=O)N[C@@H](CCC(=O)O)C(=O)N[C@@H](Cc1ccccc1)C(=O)N[C@H](C(=O)N[C@@H](CCC(N)=O)C(=O)N[C@@H](Cc1c[nH]c2ccccc12)C(=O)N[C@@H](CC(C)C)C(=O)N[C@@H](CC(C)C)C(=O)N[C@@H](CC(N)=O)C(=O)N[C@H](C(N)=O)[C@@H](C)O)C(C)C [Example 34, N^ε16-([2-[2-[2-[[2-[2-[2-[[(4S)-5-hydroxy-4-[(18-hydroxy-18-oxooctadecanoyl)amino]-5-oxopentanoyl]amino]ethoxy]ethoxy]acetyl]amino]ethoxy]ethoxy]acetyl])[Lys^16,Lys^17,Glu^21, Leu^27] Glucagon peptide amide] (H-HSQGTFTSDYSKYLDK([AEEA-AEEA-γGlu-C18 diacid])KRAQEFVQWLLNT-NH2; N-terminus assumed)
0.106 | CC(C)C[C@H](NC(=O)[C@H](Cc1ccc(O)cc1)NC(=O)[C@H](CCCCN)NC(=O)[C@H](CO)NC(=O)[C@H](Cc1ccc(O)cc1)NC(=O)[C@H](CC(=O)O)NC(=O)[C@H](CO)NC(=O)[C@@H](NC(=O)[C@H](Cc1ccccc1)NC(=O)[C@@H](NC(=O)CNC(=O)[C@H](CCC(N)=O)NC(=O)[C@H](CO)NC(=O)[C@@H](N)Cc1c[nH]cn1)[C@@H](C)O)[C@@H](C)O)C(=O)N[C@@H](CC(=O)O)C(=O)N[C@@H](CO)C(=O)N[C@@H](CCCNC(=N)N)C(=O)N[C@@H](CCCNC(=N)N)C(=O)N[C@@H](C)C(=O)N[C@@H](CCC(N)=O)C(=O)N[C@@H](CC(=O)O)C(=O)N[C@@H](Cc1ccccc1)C(=O)N[C@H](C(=O)N[C@@H](CCCCNC(=O)CC[C@H](NC(=O)COCCOCCNC(=O)COCCOCCNC(=O)CC[C@H](NC(=O)CC[C@H](NC(=O)CCCCCCCCCCCCCCCCC(=O)O)C(=O)O)C(=O)O)C(=O)O)C(=O)N[C@@H](Cc1c[nH]c2ccccc12)C(=O)N[C@@H](CC(C)C)C(=O)N[C@@H](CC(C)C)C(=O)N[C@@H](CO)C(=O)N[C@H](C(=O)O)[C@@H](C)O)C(C)C [Example 68, N^ε24-[(4S)-4-carboxy-4-[[2-[2-[2-[[2-[2-[2-[[(4S)-4-carboxy-4-[[(4S)-4-carboxy-4-(17-carboxyheptadecanoylamino)butanoyl]amino]butanoyl]amino]ethoxy]ethoxy]acetyl]amino]ethoxy]ethoxy]acetyl]amino]butanoyl]-[Lys^24,Leu^27,Ser^28]-Glucagon]
2.2 | CC(C)C[C@H](NC(=O)[C@H](Cc1ccc(O)cc1)NC(=O)[C@H](CCCCN)NC(=O)[C@H](CO)NC(=O)[C@H](Cc1ccc(O)cc1)NC(=O)[C@H](CCC(=O)O)NC(=O)[C@H](CO)NC(=O)[C@@H](NC(=O)[C@H](Cc1ccccc1)NC(=O)[C@@H](NC(=O)CNC(=O)[C@H](CCC(N)=O)NC(=O)[C@H](CO)NC(=O)[C@@H](N)Cc1c[nH]cn1)[C@@H](C)O)[C@@H](C)O)C(=O)N[C@@H](CC(=O)O)C(=O)N[C@@H](CO)C(=O)N[C@@H](CCCNC(=N)N)C(=O)N[C@@H](CCCNC(=N)N)C(=O)N[C@@H](C)C(=O)N[C@@H](CCC(N)=O)C(=O)N[C@@H](CC(=O)O)C(=O)N[C@@H](Cc1ccccc1)C(=O)N[C@H](C(=O)N[C@@H](CCCCNC(=O)CC[C@H](NC(=O)CC[C@H](NC(=O)COCCOCCNC(=O)CC[C@H](NC(=O)CCCCCCCCCCCCCCCCC(=O)O)C(=O)O)C(=O)O)C(=O)O)C(=O)N[C@@H](Cc1c[nH]c2ccccc12)C(=O)N[C@@H](CC(C)C)C(=O)N[C@@H](CC(C)C)C(=O)N[C@@H](CO)C(=O)N[C@H](C(=O)O)[C@@H](C)O)C(C)C [Example 92, N^ε24-[(4S)-4-carboxy-4-[[(4S)-4-carboxy-4-[[2-[2-[2-[[(4S)-4-carboxy-4-(17-carboxyheptadecanoylamino)butanoyl]amino]ethoxy]ethoxy]acetyl]amino]butanoyl]amino]butanoyl]-[Glu^9,Lys^24,Leu^27,Ser^28]-Glucagon]
0.044 | CC(C)C[C@H](NC(=O)[C@H](Cc1ccc(O)cc1)NC(=O)[C@H](CCCCN)NC(=O)[C@H](CO)NC(=O)[C@H](Cc1ccc(O)cc1)NC(=O)[C@H](CC(=O)O)NC(=O)[C@H](CO)NC(=O)[C@@H](NC(=O)[C@H](Cc1ccccc1)NC(=O)[C@@H](NC(=O)[C@@H](Cc1ccccc1)NC(=O)[C@H](CCC(N)=O)NC(=O)[C@H](CO)NC(=O)[C@@H](N)Cc1c[nH]cn1)[C@@H](C)O)[C@@H](C)O)C(=O)N[C@@H](CC(=O)O)C(=O)N[C@@H](CO)C(=O)N[C@@H](CCCNC(=N)N)C(=O)N[C@@H](CCCNC(=N)N)C(=O)N[C@@H](C)C(=O)N[C@@H](CCC(N)=O)C(=O)N[C@@H](CC(=O)O)C(=O)N[C@@H](Cc1ccccc1)C(=O)N[C@H](C(=O)N[C@@H](CCCCNC(=O)CC[C@H](NC(=O)CC[C@H](NC(=O)COCCOCCNC(=O)COCCOCCNC(=O)CC[C@H](NC(=O)CCCCCCCCCCCCCCCCC(=O)O)C(=O)O)C(=O)O)C(=O)O)C(=O)N[C@@H](Cc1c[nH]c2ccccc12)C(=O)N[C@@H](CC(C)C)C(=O)N[C@@H](CC(C)C)C(=O)N[C@@H](CO)C(=O)N[C@H](C(=O)O)[C@@H](C)O)C(C)C [Example 99, N^ε24-[(4S)-4-carboxy-4-[[(4S)-4-carboxy-4-[[2-[2-[2-[[2-[2-[2-[[(4S)-4-carboxy-4-(17-carboxyheptadecanoylamino)butanoyl]amino]ethoxy]ethoxy]acetyl]amino]ethoxy]ethoxy]acetyl]amino]butanoyl]amino]butanoyl]-[D-Phe4,Lys24,Leu27,Ser28]-Glucagon] (H-HSQ[dF]TFTSDYSKYLDSRRAQDFVK([γGlu-γGlu-AEEA-AEEA-γGlu-C18 diacid])WLLST-OH)
0.012 | CC(C)C[C@H](NC(=O)[C@H](Cc1ccc(O)cc1)NC(=O)[C@H](CCCCN)NC(=O)[C@H](CO)NC(=O)[C@H](Cc1ccc(O)cc1)NC(=O)[C@H](CC(=O)O)NC(=O)[C@H](CO)NC(=O)[C@@H](NC(=O)[C@H](Cc1ccccc1)NC(=O)[C@@H](NC(=O)CNC(=O)[C@H](CCC(N)=O)NC(=O)[C@H](CO)NC(=O)[C@@H](N)Cc1c[nH]cn1)[C@@H](C)O)[C@@H](C)O)C(=O)N[C@@H](CC(=O)O)C(=O)N[C@@H](CO)C(=O)N[C@@H](CCCCN)C(=O)N[C@@H](CCCNC(=N)N)C(=O)N[C@@H](C)C(=O)N[C@@H](CCC(N)=O)C(=O)N[C@@H](CCC(=O)O)C(=O)N[C@@H](Cc1ccccc1)C(=O)N[C@H](C(=O)N[C@@H](CCC(N)=O)C(=O)N[C@@H](CCCCNC(=O)COCCOCCNC(=O)COCCOCCNC(=O)CC[C@H](NC(=O)CCCCCCCCCCCCCCCCC(=O)O)C(=O)O)C(=O)N[C@@H](CC(C)C)C(=O)N[C@@H](CC(C)C)C(=O)N[C@@H](CC(N)=O)C(=O)N[C@H](C(N)=O)[C@@H](C)O)C(C)C [Example 44, N^ε25 ([2-[2-[2-[[2-[2-[2-[[(4S)-5-hydroxy-4-[(18-hydroxy-18-oxooctadecanoyl)amino]-5-oxopentanoyl]amino]ethoxy]ethoxy]acetyl]amino]ethoxy]ethoxy]acetyl]) [Lys^17, Glu^21, Lys^25 Leu^27] Glucagon peptide amide] (H-HSQGTFTSDYSKYLDSKRAQEFVQK([AEEA-AEEA-γGlu-C18 diacid])LLNT-NH2; N-terminus assumed)
